Series [1] relates to PAECs. The series is described as follows: BrdU proliferation assay in PAECs. The series is classed as cell-based, human. The method, then: BrdU growth assay: Cell proliferation was assayed relative to day 0 using a BrdU Cell Proliferation Assay Kit (#6813, Cell Signaling) according to the manufacturer's protocol after incubation for 2 h with BrdU.
Series [2] deals with C43 genes (ISCU, mTOR); EDN1, VCAM1, ICAM1. The experiment in a line: RT-qPCR of Cluster 43 and proinflammatory genes in PAECs. Format: cell-based, human. The method, then: In IL-6/sIL-6R+hypoxia experiments, a human recombinant IL-6/IL-6R alpha protein chimera (25 ng/ml, Millipore) was administered at 70-80% confluency for 48 h in complete media along with vehicle control (DMSO, Sigma-41639). […] The hypoxia chamber (modular incubator chamber) was obtained from Billups-Rothenberg Inc. (Del Mar, Calif) and placed in regulated CO2 incubator at 37° C.
(§1) RT-qPCR analysis: Cells were lysis in 1 ml of QiaZol reagent (Qiagen). Total RNA content was extracted using the RNeasy kit (Qiagen), according to the manufacturer's instructions. Total RNA concentration was determined using a BioTek Synergy multimode plate reader. Messenger RNAs were reverse transcribed to generate cDNA using the Multiscript RT kit (Thermo Fisher Scientific). cDNA for specific gene targets was amplified and quantified via fluorescently-labeled Taqman primer sets and Taqman fast advanced master mix (Thermo Fisher Scientific) using an Applied Biosystems QuantStudio 6 Flex Real-Time PCR System.

For series [3], the system named is C43 genes ISCU and mTOR. The series is described as follows: RT-qPCR of Cluster 43 genes in PASMCs. The series is classed as cell-based, human. The note with it: BRD2889 5 uM.
Text: Cell culture: Primary human pulmonary artery endothelial cells (PAECs) and human pulmonary artery smooth muscle cells (PASMCs) were purchased from Lonza (302-05A, CC-2581). Of note, the same two male donors were the source of all PAECs in the experiments shown. Two additional male donors were the source for all PASMCs in the experiments shown. Cells from these and any donors were characterized by flow cytometry for consistent expression of cell surface markers and by RNA (RT-qPCR) analysis of endothelial and smooth muscle gene expression. PAECs were cultured in EGM-2 media (CC-3121) along with supplements (CC-4133), and PASMCs were cultured in SmGM-2 culture media (Lonza, CC-3182) at 5% CO2 in a humidified incubator.
as §1
In general terms: In qPCR the cycle at which signal appears reflects the starting amount.

Series [4] deals with mitochondrial Complex I. The experiment in a line: Mitochondrial Complex I activity in PASMCs. The series is classed as cell-based, human. Conditions: IL-6/sIL-6R + hypoxia. The method, then:
In IL-6/sIL-6R+hypoxia experiments, a human recombinant IL-6/IL-6R alpha protein chimera (25 ng/ml, Millipore) was administered at 70-80% confluency for 48 h in complete media along with vehicle control (DMSO, Sigma-41639). BRD2889 (1 uM) vs. vehicle control were added, as indicated, and placed into a hypoxia chamber for 24 h. The hypoxia chamber (modular incubator chamber) was obtained from Billups-Rothenberg Inc. (Del Mar, Calif) and placed in regulated CO2 incubator at 37° C.
Mitochondria isolation: Mitochondrial fraction from cultured PAECs with drug and siGSTP1 using the Mammalian Mitochondria Isolation Kit for Tissue & Cultured Cells (Biovision, Inc.) according to the manufacturer's instructions.
Measurement of mitochondrial complex activities: Complex I activity of isolated mitochondria were measured using Complex I Enzyme Activity Microplate assay kit (Abcam, ab109721) according to the manufacturer's protocol. These enzymes were captured within the wells of the microplate coated by the corresponding complex enzyme antibody, and activities were detected colorimetrically.

Series [5] deals with PAECs. The series is described as follows: Global transcriptome microarray in PAECs. Format: cell-based, human. The note with it: transcriptional array, hypoxia +/- BRD2889. An excerpt: The gene expression was normalized with Robust Multiarray Analysis (RMA). For BRD2889, the same approach was employed using Affymetrix Clariom S array on RNA isolated from PAECs treated with BRD2889 or vehicle and subjected to either hypoxia or normoxia. Differentially expressed genes were defined as any gene for which the FDR adjusted p-value was below 0.05 (n=3/grp). Reversed genes were further defined as those genes that were differentially expressed in both (hypoxia versus normoxia) and in (hypoxia+BRD2889 versus hypoxia)+vehicle as well as were regulated in opposite directions. Similarly, for I-BET that were differentially expressed in IL-1β+VC versus control and IL-1β+I-BET versus IL-1β+VC and were regulated in opposite directions. The data for both I-BET and BRD2889 have been submitted to the NCBI Gene Expression Omnibus with accession numbers GSE125508 and GSE160255, respectively.

Series [6] concerns SU5416-hypoxic pulmonary arterial hypertension rats. The series is described as follows: SU5416-hypoxia pulmonary arterial hypertension rat model. Format: in vivo, Sprague-Dawley rats. Here is the method: Briefly, 10 week old male Sprague-Dawley rats were injected i.p. with 20 mg/kg of SU5416 (Sigma), placed in normobaric hypoxia (10% O2) for 3 weeks and then transferred to normoxia for 2 weeks. During hypoxic exposure, chambers were opened twice a week for cleaning and replenishment of food and water. […] For BRD2889 vs. vehicle control dosing, i.p. injections every 5 days (5 mg/kg) were administered during the final two weeks of normoxia. Oxygen concentrations were continuously monitored with blood gas analyzers.
Following euthanasia, right ventricle/[left ventricle+septum]
Measurement of GST activity: The GST activity from lung tissue and PAECs was assayed using GST assay kit (Cayman, MI, USA) per the manufacturer's instructions.
Rodent echocardiography: Echocardiography was performed using a 15-45 MHz transthoracic transducer and a Visual Sonics Vevo 3100 system (Fujifilm). Inhaled isoflurane anesthesia was used at 2% in 100% O2 during positioning and hair removal and then decreased to isoflurane 0.8% during imaging.

The mark [7] stands for this setting: BRD2889 5 mg/kg i.p. every 5 days.

For `COc1ccc(C#CC2CCCN(C(=O)/C=C/c3cc(OC)c(OC)c(OC)c3)C2=O)cc1` (stereo not shown) [BRD2889], in series [1] (PAECs, IL-6/sIL-6R + hypoxia), the “proliferation (BrdU)” value is on record as “increased proliferation”. Besides, the “proliferation (BrdU incorporation)” value in series [1] (hypoxic PAECs) is listed as “reversed the decrease”. In series [1] (hypoxic PAECs with siRNA knockdown of ISCU), the “hypoxia-induced decrease in proliferation” value is “did not reverse”. For the same compound, the “inflammatory gene transcripts (EDN1, VCAM1, ICAM1)” value in series [2] (IL-6/sIL-6R + hypoxia) is recorded as “normalized this upregulation”. Further, in series [2] (hypoxia 48 hrs, BRD2889 5 uM), the “C43 genes MID2, BANP, AGTRAP transcripts” value is on record as “unaffected in hypoxia”; the “ISCU transcript (RT-qPCR)” value was “fully reversing the hypoxic decrease”; the “mTOR transcript (RT-qPCR)” value is recorded as “partially reversing the decrease”. Moreover, in series [3], the “hypoxia-induced reduction in ISCU transcript” value is reported as “unaffected”. Also, the mTOR transcript result in series [3] (hypoxia) is “no change”. Besides, in series [4], the “mitochondrial Complex I activity” value is “did not affect”. Also, in series [5], the “number of genes altered by hypoxia but reversed by drug” value is 3830 genes. Further, in series [6] (setting [7]), the “Fulton index (RV/LV+S)” value is “reduced”, the “ISCU in CD31+ endothelium” value was “increased”, the arteriolar muscularization entry is reported as “reduced” and the “cleaved caspase-3 (CC-3) in CD31+ endothelium” value is given as “decreased”. Moreover, the “right ventricular systolic pressure (RVSP)” value in series [6] (setting [7]) is “reduced”. Further, the “lung GST activity” value in series [6] (BRD2889 5 mg/kg i.p. every 5 days, final 2 weeks in normoxia) is listed as “decreased”. In addition, in series [6] (BRD2889 vs vehicle), the “left ventricular function (LVPW thickness, LVEF, LVFS)” value was “did not exhibit altered left ventricular function”. Besides, in series [6] (three SU5416-hypoxic rats treated with drug), the ascites entry is recorded as “accumulation of mild ascites”.

The record behind these values is patent US12599592B2, “Therapeutic small molecules for treatment of pulmonary hypertension” (UNIVERSITY OF PITTSBURGH—OF THE COMMONWEALTH SYSTEM OF …, priority 2020, dated 2026).
